Several values for one entry are separate records, joined by “and”; a condition that tells them apart may be missing. Equal values may be shown once.
Legend:
MCF7 cells [1] = assay: Proportion of cells in mitosis (PI stained cytospins, confocal microscopy); format: cell-based; conditions: 24 hours (control 4%)
Protocol: To determine the proportion of cells in mitosis, drug treated cells were collected by trypsinisation and cytospins prepared. Cells were fixed in ice cold methanol for 5 minutes, air dried and DNA was stained using propidium iodide (PI) (0.1 mg/ml in phosphate buffered saline (PBS) containing 10% (v/v) newborn calf serum and 0.05% (w/v) sodium azide). Cells were analysed by confocal microscopy using a Zeiss Axiovert 100 M microscope equipped with the LSM 510 confocal system (Zeiss, Jena, Germany).
Effect of estrone derivatives on mitosis in MCF7 cells. MCF7 cells were treated with the indicated compounds for 24 hours. Cells were recovered by trypsinisation and cytospins prepared. DNA was stained with PI and cells in mitosis (i.e., with condensed chromosomes) determined as a percentage of total cells.

[2] = test system: MCF-7 breast cancer cells; assay: Irreversible inhibition of cell growth, Stage 1 and Stage 2 (Coulter cell counter); format: cell-based; conditions: for effect on cell growth compared with controls, Stage 1: 5 μm and 1 μm; for effect on cell growth compared with controls, Stage 1 / cell numbers, % of the control cell number, Stage 1: 6 days; for effect on cell numbers, Stage 2 (irreversible growth inhibition): re-seeded after 6-day treatment, further 6 days without drug
Protocol: MCF-7 breast cancer cells were seeded into multi-well culture plates at a density of 10^5 cells/well. Cells were allowed to attach and grown until about 30% confluent when they were treated as follows:
Cells were grown for 6 days in growth medium containing the above drugs with changes of medium/drug every 3 days. At the end of this period cell numbers were counted using a Coulter cell counter.
After treatment of cells for a 6-day period with the above drugs cells were re-seeded at a density of 10^4 Cells/well. No further treatments were added. Cells were allowed to continue to grow for a further 6 days in the presence of growth medium. At the end of this period cell numbers were again counted.
Stages 1 and 2 described above were repeated using Control—no treatment, EMATE 20 μM and EMATE 5 μM.
MCF-7 breast cancer cells were seeded into multi-well culture plates at a density of 10^5 cells/well. Cells were allowed to attach and grown until about 30% confluent when they were treated as follows: • Control—no treatment • Compound of Interest (COI) 20 μM
Cells were grown for 6 days in growth medium containing the COI with changes of medium/COI every 3 days. At the end of this period cell numbers were counted using a Coulter cell counter.
After treatment of cells for a 6-day period with the COI cells were re-seeded at a density of 10^4 cells/well. No further treatments were added. Cells were allowed to continue to grow for a further 6 days in the presence of growth medium. At the end of this period cell numbers were again counted.

CAMA1 cells [3] = assay: DNA content by flow cytometry of propidium iodide stained cells; format: cell-based; conditions: CAMA1, 500 nM
Protocol: (§1) MCF7, CAL51, CAMA1 and ZR-75-1 breast cancer derived cell lines were obtained from ATCC (MCF7, CAMA1, ZR-75-1) or from the Dutrillaux laboratory (CAL51) (22) and maintained in Dulbecco's modified Eagle's medium (DMEM) supplemented with 10% (v/v) fetal calf serum and antibiotics.
(§2) DNA content was determined by flow cytometric analysis of propidium iodide stained cells and TdT-mediated dUTP-nick end labelling (TUNEL), respectively, as described (20). The proportion of cells in G2/M phase of the cell cycle was calculated as a proportion of cells with […] DNA content. The proportion of cells with <G1 DNA content was calculated as a percentage of total cells.

ZR-75-1 cells [4] = assay: as above; format: cell-based; conditions: ZR-75-1, 500 nM
Protocol: as §1, §2

CAL51 cells [5] = assay: as above; format: cell-based; conditions: CAL51, 500 nM
Protocol: as §1, §2

MCF7 cells [6] = assay: as above; format: cell-based; conditions: MCF7, 500 nM
Protocol: as §1, §2

CAMA1 cells [7] = assay: TUNEL assay; format: cell-based; conditions: CAMA1, 500 nM for 72 hours
Protocol: as §2
(§3) We used the TUNEL assay to confirm that the cell death detected by flow cytometry of PI stained cells was due to apoptosis. Following exposure to 2-EtEMATE (500 nM for 72 hours) there was a significant increase in the proportion of CAL51 and CAMA1 cells undergoing apoptosis (60% and 37% TUNEL positive cells, respectively) (FIG. 16). By contrast, there was only a modest increase in TUNEL positivity in MCF7 or ZR-75-l cells (7% and 10%, respectively) treated with 2-EtEMATE at this concentration.

ZR-75-1 cells [8] = assay: TUNEL assay; format: cell-based; conditions: ZR-75-1, 500 nM for 72 hours
Protocol: as §2, §3

CAL51 cells [9] = assay: TUNEL assay; format: cell-based; conditions: CAL51, 500 nM for 72 hours
Protocol: as §2, §3

MCF7 cells [10] = assay: TUNEL assay; format: cell-based; conditions: MCF7, 500 nM for 72 hours
Protocol: as §2, §3

[11] = test system: MCF7, ZR-75-1, CAL51 and CAMA1 cells; assay: Microtitre plate growth inhibition assay (FIG. 14); format: cell-based
[12] = test system: nitrosomethylurea-induced mammary tumours; assay: Growth of NMU-induced mammary tumours in intact rats; format: in vivo, rat; conditions: 20 mg/kg/day, p.o., 11 days, individual animals
Protocol: The effect of 2-MeOEMATE on mammary tumour growth was examined in a preliminary study using Ludwig rats (Harlan Olac, Bicester, UK) in which tumours were induced by inoculation of NMU. Tumour development was monitored regularly and when 0.5-1.0 cm^3 in volume, animals received vehicle (propylene glycol, 200 μl/day, p.o.), 2-MeOEMATE (20 mg/kg/day, p.o.) or 2-MeOE1 (20 mg/kg/day, p.o.) daily for an 11 day period. Tumour length and width was measured with callipers and tumour volumes calculated as described (21).

[13] = test system: MCF-7 breast cancer cells; assay: Cell Titer 96 cell proliferation assay, 4-day drug exposure; format: cell-based; conditions: 4 days
Protocol: (§4) MCF-7 (ER+) and MDA-MB-231 (ER−) breast cancer cells were obtained from the American Type Culture Collection (Rockville, Md.). Cells were routinely cultured in 25 cm^2 culture flasks in Eagle's minimum essential medium (EMEM) with Hepes buffer (20 mM). This medium was supplemented with L-glutamine (2 mM), sodium hydrogen carbonate (10 mM), 1% non-essential amino acids and 5% (v/v) foetal calf serum (FCS). Before adding test compounds, cells were washed with phosphate-buffered saline (PBS) and treatments added in phenol-red free medium containing 2% stripped FCS and supplements. The effects of 2-MeOE1 or 2-MeOEMATE on the growth of MCF-7 cells was assessed using a Cell Titer 96 cell proliferation assay (Promega, Southampton, Hants, UK) according to the manufacturers' instructions. For this, cells (5000 per well) were cultured in medium containing phenol-red and 10% FCS and were exposed to a drug for 4 days before the assay was performed. For MDA-MB-231 cells, cell numbers were determined using a Coulter counter.

[14] = test system: MCF-7 breast cancer cells; assay: Cell morphology by photomicrographs; format: cell-based
Protocol: as §4
Photomicrographs of control and treated cells were taken under normal conditions of light and exposure using an Olympus SL35 Type 12 camera under an Olympus CK2 microscope (×100 magnification).

Meth A sarcoma = conditions: 100 mg/kg, p.o., every other day, 12 day, CH3 mice (10); cited from earlier work
[15] = test system: MDA-MB-435 breast cancer cells; conditions: oral, 75 mg/kg/day for 29 days, SCID mice (11); cited from earlier work
B16 melanoma = conditions: 100 mg/kg, p.o., every other day, 12 day, CH3 mice (10); cited from earlier work
[16] = test system: MCF-7 breast cancer cells; conditions: reported by Seegers et al. (8); cited from earlier work
[17] = rats, oral (16); cited from earlier work

## CCc1cc2c(cc1O)CC[C@@H]1[C@@H]2CC[C@]2(C)C(=O)CC[C@@H]12 [2-EtE1, 2-Ethylestrone, reference compound]
MCF7 cells [1]; 500 nM
  mitotic cells, percentage of total cells: 4%
MCF7 cells [1]; 5 μM
  mitotic cells, percentage of total cells: 6%
[2]
  effect on cell growth compared with controls, Stage 1: little effect on cell growth
  effect on cell numbers, Stage 2 (irreversible growth inhibition): little effect on cell numbers

## CCc1cc2c(cc1OS(N)(=O)=O)CCC1C2CCC2(C)C(=O)CCC12 (stereo not shown) [2-EtEMATE, 2-Ethylestrone-3-O-sulfamate]
MCF7 cells [1]; 500 nM
  mitotic cells, percentage of total cells: 29%
MCF7 cells [1]; 5 μM
  mitotic cells, percentage of total cells: 49%
CAMA1 cells [3]; 24 hours
  <G1 DNA content, percent of total cells: 4%
  G1/S, percentage of total cells with a 2N to 4N DNA content: 33%
CAMA1 cells [3]; 48 hours
  <G1 DNA content, percent of total cells: 16%
  G1/S, percentage of total cells with a 2N to 4N DNA content: 25%
  G2/M, percentage of total cells with a 2N to 4N DNA content: 75%
CAMA1 cells [3]; 72 hours
  <G1 DNA content, percent of total cells: 36%
  G1/S, percentage of total cells with a 2N to 4N DNA content: 33%
  G2/M, percentage of total cells with a 2N to 4N DNA content: 67%
CAMA1 cells [3]; 96 hours
  G1/S, percentage of total cells with a 2N to 4N DNA content: 33%
  G2/M, percentage of total cells with a 2N to 4N DNA content: 67%
ZR-75-1 cells [4]; 24 hours
  <G1 DNA content, percent of total cells: 1%
  G1/S, percentage of total cells with a 2N to 4N DNA content: 84%
  G2/M, percentage of total cells with a 2N to 4N DNA content: 15%
ZR-75-1 cells [4]; 48 hours
  <G1 DNA content, percent of total cells: 6%
  G1/S, percentage of total cells with a 2N to 4N DNA content: 60%
  G2/M, percentage of total cells with a 2N to 4N DNA content: 40%
ZR-75-1 cells [4]; 72 hours
  <G1 DNA content, percent of total cells: 12%
  G1/S, percentage of total cells with a 2N to 4N DNA content: 37%
  G2/M, percentage of total cells with a 2N to 4N DNA content: 60% and 63%
ZR-75-1 cells [4]; 96 hours
  <G1 DNA content, percent of total cells: 9%
  G1/S, percentage of total cells with a 2N to 4N DNA content: 20%
  G2/M, percentage of total cells with a 2N to 4N DNA content: 80%
CAL51 cells [5]; 24 hours
  <G1 DNA content, percent of total cells: 2%
  G1/S, percentage of total cells with a 2N to 4N DNA content: 38%
CAL51 cells [5]; 48 hours
  <G1 DNA content, percent of total cells: 10%
  G1/S, percentage of total cells with a 2N to 4N DNA content: 18%
  G2/M, percentage of total cells with a 2N to 4N DNA content: 82%
CAL51 cells [5]; 72 hours
  <G1 DNA content, percent of total cells: 21%
  G1/S, percentage of total cells with a 2N to 4N DNA content: 32%
  G2/M, percentage of total cells with a 2N to 4N DNA content: 68%
CAL51 cells [5]; 96 hours
  G1/S, percentage of total cells with a 2N to 4N DNA content: 23%
  G2/M, percentage of total cells with a 2N to 4N DNA content: 77%
MCF7 cells [6]; 24 hours
  <G1 DNA content, percent of total cells: 5%
  G1/S, percentage of total cells with a 2N to 4N DNA content: 63%
  G2/M, percentage of total cells with a 2N to 4N DNA content: 37%
MCF7 cells [6]; 48 hours
  <G1 DNA content, percent of total cells: 5%
  G1/S, percentage of total cells with a 2N to 4N DNA content: 38%
MCF7 cells [6]; 72 hours
  <G1 DNA content, percent of total cells: 12%
  G1/S, percentage of total cells with a 2N to 4N DNA content: 34%
  G2/M, percentage of total cells with a 2N to 4N DNA content: 66%
MCF7 cells [6]; 96 hours
  <G1 DNA content, percent of total cells: 8%
  G1/S, percentage of total cells with a 2N to 4N DNA content: 29%
  G2/M, percentage of total cells with a 2N to 4N DNA content: 71%
CAMA1 cells [7]
  TUNEL positive cells: 37%
ZR-75-1 cells [8]
  TUNEL positive cells: 10%
CAL51 cells [9]
  TUNEL positive cells: 60%
MCF7 cells [10]
  TUNEL positive cells: 7%
[11]
  lowest dose that gave significant growth inhibition in each cell line: 500 nM
[2]; 1 m (so in the source)
  cell numbers, % of the control cell number, Stage 1: 50%
[2]; 5 μm
  cell numbers, % of the control cell number, Stage 1: 36%
[2]
  effect on cell numbers, Stage 2 (irreversible growth inhibition): severely growth restricted

## COc1cc2c(cc1O)CC[C@@H]1[C@@H]2CC[C@]2(C)C(=O)CC[C@@H]12 [2-MeOE1, 2-methoxyoestrone, reference compound]
[12]
  reduction in tumour volume: little effect on tumour growth and no change in tumour volume and 25%
[13]; 0.1 μM
  inhibition of proliferation of MCF-7 cells: little effect
[13]; 1.0 μM
  inhibition of proliferation of MCF-7 cells: little effect
[13]; 10 μM
  inhibition of proliferation of MCF-7 cells: 19%
[2]
  effect on cell growth compared with controls, Stage 1: little effect on cell growth
  effect on cell numbers, Stage 2 (irreversible growth inhibition): little effect on cell numbers
[14]; 1 μM, 24 h
  effect on cell morphology: little effect on cell morphology

## COc1cc2c(cc1O)CC[C@@H]1[C@@H]2CC[C@]2(C)[C@@H](O)CC[C@@H]12 [2-MeOE2, 2-methoxyoestradiol]
Meth A sarcoma
  reduction of tumour growth: 57%
[15]
  reduction of tumour volumes compared with untreated controls: 60%
  toxic side effects: No toxic side effects were detected
B16 melanoma
  reduction of tumour growth: 83%
[16]
  concentrations cytotoxic to MCF-7 breast cancer cells: ≥ 1 μm

## CC12CCC3c4ccc(OS(N)(=O)=O)cc4CCC3C1CCC2=O (stereo not shown) [EMATE, oestrone-3-O-sulphamate]
[17]
  oral uterotrophic activity relative to estradiol: 100 times
[2]; 5 μM
  cell number, Stage 1: EMATE 5 μM = 139% control
  cell number, Stage 2: EMATE 5 μM = 98% control
[2]; 20 μM
  cell number, Stage 1: EMATE 20 μM = 119% control
  cell number, Stage 2: EMATE 20 μM = 103% control
[14]; 10 μM
  effect on cell morphology: did not affect cell morphology

## C[C@]12CC[C@@H]3c4ccc(O)cc4CC[C@H]3[C@@H]1CCC2=O [Oestrone]
[14]; 10 μM
  effect on cell morphology: did not affect cell morphology
